For this experiment, the target named is T1, 5-HT2c receptor (Homo sapiens, UniProt P28335).
T1 sequence (P28335 33-458): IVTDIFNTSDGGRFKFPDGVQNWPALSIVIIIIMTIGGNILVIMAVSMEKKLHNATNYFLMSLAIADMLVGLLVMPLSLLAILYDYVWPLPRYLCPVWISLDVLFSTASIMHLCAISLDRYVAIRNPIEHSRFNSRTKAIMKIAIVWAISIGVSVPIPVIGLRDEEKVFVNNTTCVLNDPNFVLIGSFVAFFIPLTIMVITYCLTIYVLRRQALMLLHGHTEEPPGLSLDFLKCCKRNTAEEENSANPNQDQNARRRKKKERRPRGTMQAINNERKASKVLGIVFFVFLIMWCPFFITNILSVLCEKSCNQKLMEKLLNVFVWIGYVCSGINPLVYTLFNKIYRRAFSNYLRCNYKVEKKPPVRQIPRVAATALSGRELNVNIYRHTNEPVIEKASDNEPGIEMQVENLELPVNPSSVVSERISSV
Briefly: [35S]guanosine 5-O-(3-thio)triphosphate binding (5-HT2c partial agonism). It is filed as biochemical. Particulars: [35S]GTPgammaS binding, partial agonist.

This passage reports Emax results from patent publication US20230085440A1, “METHODS OF PREVENTING AND TREATING PAIN AND ASSOCIATED SYMPTOMS” (Ethismos Research, Inc., priority 2021, published 2023).

In turn, `Clc1ccc([C@]23CNC[C@H]2C3)cc1Cl` [amitifadine] displayed an Emax of 52%.
